Several values for one entry are separate records, joined by “and”; a condition that tells them apart may be missing. Equal values may be shown once.
Legend:
Assay in all cases: MIC / FIC index synergy test, 96-well microplate, optical density at 620 nm
Format in all cases: cell-based
[1] = test system: Aspergillus niger ATCC 6275
[2] = test system: Enterococcus faecalis ATCC 33186; conditions: compound alone; for % MIC alone: first concentration giving growth <= 25%
Text: (§1) FIC Index=([…]) with: • MICa with B: minimum concentration of product A in the combination A+B which makes it possible to obtain an inhibitory effect • MICb with A: minimum concentration of product B in the combination A+B which makes it possible to obtain an inhibitory effect. • MICa: minimum inhibitory concentration of product A alone. • MICb: minimum inhibitory concentration of product B alone. […] As regards the combinations tested, MICa with b and MICb with a are the respective concentrations of A and of B in the combinations which make it possible to obtain a microbial growth percentage of less than or equal to 25%. […] The microbial strain Enterococcus faecalis ATCC 33186 and a double-concentration BHI (Brain Heart Infusion) broth liquid culture medium were used. A 96-well microplate and an incubation temperature of 32.5° C. are used. […] Successive dilutions were made with the 1‰ agar solution. 50 μl of each of the daughter solutions obtained containing compound A or B are added to the microplate wells. 100 μl of Sabouraud liquid nutrient broth inoculated at double concentration with the strain Candida albicans and 50 μl of aqueous 1‰ agar solution are also added thereto. 50 μl of each of the daughter solutions obtained containing compound A and 50 μl of each of the daughter solutions obtained containing compound B are added to the microplate wells. 100 μl of Sabouraud liquid nutrient broth inoculated at double concentration with the strain Candida albicans are also added thereto. […] The test as described above (tests, absorbance controls and growth control) was performed again to test the combination A+B on the following strains Enterococcus faecalis, Staphylococcus aureus, Pseudomonas aeruginosa, Candida albicans.

[3] = test system: Pseudomonas aeruginosa ATCC 9027; conditions: for microbial growth percentage: compound alone; for MIC of compound alone: first concentration giving growth <= 25%
Text: as §1, with “strain Pseudomonas aeruginosa” for “strain Enterococcus faecalis”, “ATCC 9027” for “ATCC 33186”, “double-concentration nutritive” for “double-concentration BHI (Brain Heart Infusion)”

[4] = test system: Staphylococcus aureus ATCC 6538; conditions: compound alone; for MIC alone: first concentration giving growth <= 25%
Text: FIC Index=([…]) with: • MICa with B: minimum concentration of product A in the combination A+B which makes it possible to obtain an inhibitory effect • MICb with A: minimum concentration of product B in the combination A+B which makes it possible to obtain an inhibitory effect. • MICa: minimum inhibitory concentration of product A alone. • MICb: minimum inhibitory concentration of product B alone. […] As regards the combinations tested, MICa with b and MICb with a are the respective concentrations of A and of B in the combinations which make it possible to obtain a microbial growth percentage of less than or equal to 25%. When the FIC index value is less than or equal to 1, it is considered that the combination of test compounds has a synergistic effect. The microbial strain Staphylococcus aureus ATCC 6538 and a double-concentration nutritive broth liquid culture medium were used. A 96-well microplate and an incubation temperature of 32.5° C. are used. […] Successive dilutions were made with the 1‰ agar solution. 50 μl of each of the daughter solutions obtained containing compound A or B are added to the microplate wells. 100 μl of Sabouraud liquid nutrient broth inoculated at double concentration with the strain Candida albicans and 50 μl of aqueous 1‰ agar solution are also added thereto. 50 μl of each of the daughter solutions obtained containing compound A and 50 μl of each of the daughter solutions obtained containing compound B are added to the microplate wells. 100 μl of Sabouraud liquid nutrient broth inoculated at double concentration with the strain Candida albicans are also added thereto. […] The test as described above (tests, absorbance controls and growth control) was performed again to test the combination A+B on the following strains Enterococcus faecalis, Staphylococcus aureus, Pseudomonas aeruginosa, Candida albicans.

[5] = test system: Candida albicans ATCC 10231; conditions: compound alone; for MIC alone: first concentration giving growth <= 25%
Text: FIC Index=([…]) with: • MICa with B: minimum concentration of product A in the combination A+B which makes it possible to obtain an inhibitory effect • MICb with A: minimum concentration of product B in the combination A+B which makes it possible to obtain an inhibitory effect. • MICa: minimum inhibitory concentration of product A alone. • MICb: minimum inhibitory concentration of product B alone. […] The microbial strain Candida albicans ATCC 10231 and a double-concentration Sabouraud broth liquid culture medium were used. A 96-well microplate and an incubation temperature of 32.5° C. are used. […] Successive dilutions were made with the 1‰ agar solution. 50 μl of each of the daughter solutions obtained containing compound A or B are added to the microplate wells. 100 μl of Sabouraud liquid nutrient broth inoculated at double concentration with the strain Candida albicans and 50 μl of aqueous 1‰ agar solution are also added thereto. 50 μl of each of the daughter solutions obtained containing compound A and 50 μl of each of the daughter solutions obtained containing compound B are added to the microplate wells. 100 μl of Sabouraud liquid nutrient broth inoculated at double concentration with the strain Candida albicans are also added thereto. In the two cases (test and control), the inoculum represents the concentration of the strain Candida albicans present in the final volume of the wells (200 μl) and is between 2 and 6χ 10^5 cfu/ml of Candida albicans.

[6] = compound alone, 0.0025 weight %
[7] = first concentration giving growth <= 25%

Row | MIC alone [5] | SMILES | microbial growth percentage ([1]; compound alone, 0.025 weight %) | microbial growth percentage ([1]; compound alone, 0.05 weight %) | MIC of compound alone [1, 7] | microbial growth percentage ([2]; 1 weight %) | % MIC alone [2] | microbial growth percentage ([3]; 0.25 weight %) | microbial growth percentage ([3]; 0.5 weight %) | microbial growth percentage ([4]; 0.125 weight %) | microbial growth percentage ([4]; 0.25 weight %) | microbial growth percentage ([4]; 0.5 weight %) | MIC alone [4] [weight %] | microbial growth percentage ([5]; 0.025 weight %) | microbial growth percentage ([5]; 0.2 weight %) [%] | microbial growth percentage ([3]; 0.125 weight %) [%] | MIC of compound alone [3] [weight %] | microbial growth percentage ([5]; 0.05 weight %) [%] | microbial growth percentage ([5]; 0.1 weight %) [%] | also measured
1 | 0.1 weight % and 0.2 weight % | CCOc1cc(CCC(C)=O)ccc1O [A, 4-(3-ethoxy-4-hydroxyphenyl)butan-2-one] | 65% and 62% | 40% and 32% | 0.25 weight % and 0.1 weight % and 0.4 weight % and 0.2 weight % | 15% and 28% and 16% | 1 weight % and 2 weight % | 79% and 78% and 87% | 74% and 52% and 64% | 65% and 60% and 61% | 55% and 52% and 51% | 5% and 1% | 0.5 | 55% and 56% and 61% and 74% and 53% | 6 |  |  |  |  | microbial growth percentage [1, 6]: 84%; microbial growth percentage ([1]; compound alone, 0.0625 weight %): 84% and 96%; microbial growth percentage ([1]; compound alone, 0.125 weight %): 40% and 41%; microbial growth percentage ([1]; compound alone, 0.25 weight %): 6% and 7%; microbial growth percentage ([1]; compound alone, 0.4 weight %): 5%; microbial growth percentage ([2]; 2 weight %): 24%; microbial growth percentage ([4]; 0.0625 weight %): 67% and 63% and 66%
2 |  | C/C=C/C=C/C(=O)[O-].[K+] [B3, potassium sorbate] | 58% | 37% |  | 22% | 2 weight % |  |  |  |  |  |  |  |  |  |  |  |  | microbial growth percentage ([1]; compound alone, 0.1 weight %): 10%; % MIC alone ([1]; compound alone, first concentration giving growth <= 25%): 0.1 weight %; microbial growth percentage ([2]; 2 weight %): 10%
3 | 0.2 weight % | COC(=O)c1ccc(O)cc1 [B4, methyl 4-hydroxybenzoate] |  |  |  |  |  | 142% | 1% |  | 51% | 44% | 1 | 67% | 12 | 150 | 0.5 | 40 | 28 | microbial growth percentage ([3]; 0.0625 weight %): 187%; microbial growth percentage ([4]; 1 weight %): 19%
4 | 0.1 weight % | CCCOC(=O)c1ccc(O)cc1 [B5, propyl 4-hydroxybenzoate] |  |  |  |  |  | 45% | 42% |  |  |  |  | 52% |  | 76 | 1 | 33 | 21 | microbial growth percentage ([3]; 1 weight %): 24%
5 | 0.1 weight % | CCCCCCCC(=O)c1ccc(O)c(C(=O)O)c1 [B6, 5-n-octanoylsalicylic acid] | 98% | 97% | 0.1 weight % |  | 0.025 weight % |  |  |  |  |  |  | 40% |  |  |  | 30 | 1 | microbial growth percentage ([1]; compound alone, 0.1 weight %): 17%; microbial growth percentage ([2]; 0.0125 weight %): 28%; microbial growth percentage ([2]; 0.025 weight %): 2%; microbial growth percentage ([5]; 0.0125 weight %): 66%

Row | SMILES | MIC alone [5] | microbial growth percentage ([1]; compound alone, 0.025 weight %) | microbial growth percentage ([1]; compound alone, 0.05 weight %) | MIC of compound alone [1, 7] | microbial growth percentage ([2]; 1 weight %) | % MIC alone [2] | microbial growth percentage ([3]; 0.25 weight %) | microbial growth percentage ([3]; 0.5 weight %) | microbial growth percentage ([4]; 0.125 weight %) | microbial growth percentage ([4]; 0.25 weight %) | microbial growth percentage ([4]; 0.5 weight %) | MIC alone [4] [weight %] | microbial growth percentage ([5]; 0.025 weight %) | microbial growth percentage ([5]; 0.2 weight %) [%] | microbial growth percentage ([3]; 0.125 weight %) [%] | MIC of compound alone [3] [weight %] | microbial growth percentage ([5]; 0.05 weight %) [%] | microbial growth percentage ([5]; 0.1 weight %) [%] | also measured
6 | O=C([O-])c1ccccc1.[Na+] [B1, sodium benzoate] | 0.2 weight % |  |  |  |  |  | 116% | 89% | 34% | 31% | 5% | 0.5 | 55% | 11 | 96 | 1 | 33 | 24 | microbial growth percentage ([3]; 0.0625 weight %): 93%; microbial growth percentage ([3]; 1 weight %): 0%; microbial growth percentage ([4]; 0.0625 weight %): 51%
7 | C/C=C/C=C/C(=O)O [B2, sorbic acid] | 0.1 weight % |  |  | 0.5 weight % | 0% | 1 weight % |  |  | 52% | 28% | −5% | 0.5 | 37% |  |  | 0.5 | 24 | 21 | microbial growth percentage ([1]; compound alone, 0.0125 weight %): 98%; microbial growth percentage ([1]; compound alone, 0.25 weight %): 95%; microbial growth percentage ([1]; compound alone, 0.5 weight %): 8%; microbial growth percentage ([2]; 0.25 weight %): 53%; microbial growth percentage ([2]; 0.5 weight %): 78%
8 | CC(=O)c1c([O-])cc(C)oc1=O.[Na+] [B8, sodium dehydroacetate] | 0.0025 weight % |  |  | 0.02 weight % |  |  |  |  |  |  |  |  |  |  |  |  |  |  | microbial growth percentage [1, 6]: 97%; microbial growth percentage ([1]; compound alone, 0.005 weight %): 29%; microbial growth percentage ([1]; compound alone, 0.01 weight %): 3%; microbial growth percentage ([1]; compound alone, 0.02 weight %): 3%; microbial growth percentage ([5]; 0.00125 weight %): 28%; microbial growth percentage ([5]; 0.0025 weight %): 15%

Source: patent publication US20230247991A1, “ANTIMICROBIAL MIXTURE CONTAINING 4-(3-ETHOXY-4-HYDROXYPHENYL)BUTAN-2-ONE AND AN ORGANIC ACID COMPOUND, AND COSMETIC COMPOSITION CONTAINING SAME” (L'OREAL, priority 2017, published 2023)
